Data reported in ChEMBL document CHEMBL5131456, “Amyloidogenic immunoglobulin light chain kinetic stabilizers comprising a simple urea linker module reveal a novel binding sub-site” (Bioorg Med Chem Lett, 2022).

Experiments:
[1] = Stabilization of fluorescein-labelled amyloidogenic full length immunoglobulin light chain dimer T46L/F49Y mutant (unknown origin) assessed as concentration of stabilizer that affords 50% maximal proteinase K protection by protease coupled fluorescence polarization assay; set-up: species or system Homo sapiens
[2] = Stabilization of fluorescein-labelled amyloidogenic full length immunoglobulin light chain dimer (unknown origin) assessed as concentration of stabilizer that affords 50% maximal proteinase K protection by protease coupled fluorescence polarization assay; set-up: species or system Homo sapiens
[3] = organism: Homo sapiens; experiment: Stabilization of unlabeled amyloidogenic full length immunoglobulin light chain dimer (unknown origin) assessed as fold proteinase K protection at 10 uM by size-exclusion chromatography

Row | EC50 [1] [nM] | EC50 [2] [nM] | fold change (FC) [3] | Structure (SMILES)
1 | 27.4 | 111 | 0.66 | CCN(CC)c1ccc2c(C)c(CCNC(=O)NCc3ccc4ccccc4c3)c(=O)oc2c1
2 | 513 | 490 | 0.17 | CCN(CC)c1ccc2c(C)c(CCNC(=O)CCc3ccccc3)c(=O)oc2c1
3 | 2050 | 1040 | 0.5 | CCN(CC)c1ccc2c(C)c(CCNC(=O)NCCc3cccnc3)c(=O)oc2c1
4 | 853 | 1830 | 0.28 | CCN(CC)c1ccc2c(C)c(CC(=O)NCCc3ccccc3)c(=O)oc2c1
5 | 74.1 | 140 | 0.81 | CCN(CC)c1ccc2c(C)c(CCNC(=O)NCc3cccc(-c4c[nH]cn4)c3)c(=O)oc2c1
6 | 2110 | 634 | 0.61 | CCN(CC)c1ccc2c(C)c(CCC(=O)NCCc3cccnc3)c(=O)oc2c1
7 | 810 | 462 | 0.66 | CCN(CC)c1ccc2c(C)c(CCNC(=O)NCc3cccnc3)c(=O)oc2c1
8 | 381 | 348 | 0.69 | CCN(CC)c1ccc2c(C)c(CCNC(=O)NCc3ccccc3)c(=O)oc2c1
9 | 377 | 233 | 0.74 | CCN(CC)c1ccc2c(C)c(CCNC(=O)NCc3cncc4ccccc34)c(=O)oc2c1
10 | – | – | 0.91 | CCN(CC)c1ccc2c(C)c(CCOC(=O)NCc3cccc(-c4c[nH]cn4)c3)c(=O)oc2c1
11 | 2660 | 1750 | 0.39 | CCN(CC)c1ccc2c(C)c(CC(=O)NCCN(C)C)c(=O)oc2c1
12 | 1610 | 1180 | 0.55 | CCN(CC)c1ccc2c(C)c(CCNC(=O)CCc3cccnc3)c(=O)oc2c1
13 | > 10000 | 6800 | 0.13 | CCN(CC)c1ccc2c(C)c(CCC(=O)NCCN(C)C)c(=O)oc2c1

Row | Structure (SMILES) | EC50 [1] [nM] | EC50 [2] [nM] | fold change (FC) [3]
14 | CCN(CC)c1ccc2c(C)cc(=O)oc2c1 | – | – | 0.28
